Laboratory results published in PubChem BioAssay AID588613 (The Scripps Research Institute Molecular Screening Center, 2011).
Active and inactive are the calls of the source.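 Rule for the calls: active = phosphorylated EGFR protein level at least 30% below or above the solvent-only control; inactive = the rest.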

Biological target: Epidermal growth factor receptor (Homo sapiens) (UniProt P00533)
Assay: p-EGFR protein level shift in DLD1 cells – cell-based, chemiluminescent western blot, powder samples, counter-screen for KLF5 inhibitor project, late-stage follow-up (AID 588613)
Settings: DLD-1 cells, phospho-EGFR western blot, 24 h; at 10 µM; active compounds read high

Epidermal growth factor receptor (Homo sapiens), sequence (P00533 whole entry, looked up): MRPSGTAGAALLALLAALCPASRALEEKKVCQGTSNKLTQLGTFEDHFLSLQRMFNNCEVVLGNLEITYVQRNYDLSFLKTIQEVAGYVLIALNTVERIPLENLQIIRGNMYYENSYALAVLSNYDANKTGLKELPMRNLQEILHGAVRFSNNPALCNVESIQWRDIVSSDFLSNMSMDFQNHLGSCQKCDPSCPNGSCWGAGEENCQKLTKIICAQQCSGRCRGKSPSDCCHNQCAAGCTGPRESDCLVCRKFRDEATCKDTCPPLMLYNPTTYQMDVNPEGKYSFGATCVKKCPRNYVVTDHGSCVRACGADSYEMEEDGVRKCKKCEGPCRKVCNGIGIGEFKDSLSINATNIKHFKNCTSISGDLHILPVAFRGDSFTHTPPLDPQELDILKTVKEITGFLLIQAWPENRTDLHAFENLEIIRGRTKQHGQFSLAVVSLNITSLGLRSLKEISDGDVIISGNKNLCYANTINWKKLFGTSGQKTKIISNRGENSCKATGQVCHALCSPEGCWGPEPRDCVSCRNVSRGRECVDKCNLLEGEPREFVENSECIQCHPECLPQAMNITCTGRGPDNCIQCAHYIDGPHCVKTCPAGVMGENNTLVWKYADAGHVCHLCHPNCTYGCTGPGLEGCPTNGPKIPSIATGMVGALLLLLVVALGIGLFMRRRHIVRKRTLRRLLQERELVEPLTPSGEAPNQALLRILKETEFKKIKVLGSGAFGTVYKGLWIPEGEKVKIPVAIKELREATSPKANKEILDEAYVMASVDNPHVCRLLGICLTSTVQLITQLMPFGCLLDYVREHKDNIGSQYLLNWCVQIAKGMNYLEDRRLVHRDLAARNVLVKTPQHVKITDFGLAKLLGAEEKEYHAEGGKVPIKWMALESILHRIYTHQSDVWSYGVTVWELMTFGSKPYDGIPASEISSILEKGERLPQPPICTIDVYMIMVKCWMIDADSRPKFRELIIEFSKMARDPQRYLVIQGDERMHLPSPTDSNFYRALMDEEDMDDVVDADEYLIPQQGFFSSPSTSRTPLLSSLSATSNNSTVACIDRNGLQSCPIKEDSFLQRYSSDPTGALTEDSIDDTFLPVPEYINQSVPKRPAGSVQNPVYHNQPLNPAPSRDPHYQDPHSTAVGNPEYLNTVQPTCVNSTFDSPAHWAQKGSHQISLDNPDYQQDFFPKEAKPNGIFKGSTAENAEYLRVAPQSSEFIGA

Structure (SMILES)	inhibition
CN(C(=O)COC(=O)/C=C/c1cccc([N+](=O)[O-])c1)C1CCS(=O)(=O)C1 (stereo not drawn)	28.2% (inactive)
CN(C(=O)CNC(=O)/C=C/c1cccc(Cl)c1)C1CCS(=O)(=O)C1 (stereo not drawn)	60.7%
CN(C(=O)CNC(=O)/C=C/c1cccc(Cl)c1)C1CCS(=O)(=O)CC1	46.8%
